Source: PMC6792352, “Limited Chemical Structural Diversity Found to Modulate Thyroid Hormone Receptor in the Tox21 Chemical Library” (Environmental Health Perspectives, 2019)
Where a name gives a salt, the structure may show the parent alone. Starred links: 1 amine or outer side, 2 acyl side, 3 side chain; linkers in the order of their positions; H or OH if unused. Positions of bridges follow the written chain, without caps; N, C: chain ends. Non-standard residues stand in square brackets, D forms with d. Residues, ends and D or L forms follow the SMILES beside them. *: point of attachment. X1 = NC1=N[C@@H]([C@H](N[*:1])C(=O)[*:2])C[C@H](O)N1; ΔAla(Z-3-ureido) = NC(=O)N/C=C(\N)C(=O)O; β3hOrn = NCCC[C@H](N)CC(=O)*; Dap = NC[C@H](N)C(=O)O

Assay: in vitro
Conditions: rat, gh3-tre-luc cells, AC50 (uM) modified / 1000

SMILES | CC50 at 24 h [µM]
CCOC(=O)c1c(N)sc2c1CCN(Cc1ccccc1)C2 [Tinoridine] | > 50
O=CCCl [Chloroacetaldehyde] | > 90
CCC(=O)OC(C)c1ccccc1 (centres unmarked) [1-Phenylethyl propionate] | > 90
COC(=O)/C=C\C(=O)OC [Dimethyl maleate] | > 90
CCOc1cc(N)c(Cl)cc1C(=O)NCC1CN(Cc2ccc(F)cc2)CCO1 (centres unmarked) [Mosapride citrate] | > 50
CC[C@@H]1/C=C(\C)C[C@H](C)C[C@H](OC)[C@H]2O[C@@](O)(C(=O)C(=O)N3CCCC[C@H]3C(=O)O[C@H](/C(C)=C/[C@@H]3CC[C@H](Cl)[C@H](OC)C3)[C@H](C)[C@@H](O)CC1=O)[C@H](C)C[C@@H]2OC [Pimecrolimus] | > 50
CNC(=N)NCCC[C@H](N)C(=O)O [Tilarginine acetate] | > 50
Oc1ccc(C2(c3ccc(O)cc3)c3ccccc3-c3ccccc32)cc1 [4,4'-(9H-Fluorene-9,9-diyl)diphenol] | 28.7
Cc1cc(C)c(NC(=O)CN(CC(=O)O)CC(=O)O)c(C)c1Br [Mebrofenin] | > 50
CN(C)CCCN(C)CCCN(C)C [2,6,10-Trimethyl-2,6,10-triazaundecane] | > 90
CCCCC(CC)COC(=O)c1ccccc1C(=O)O (centres unmarked) [MEHP] | > 90
CCCC(=O)C(CC)Sc1ccoc1C (centres unmarked) [3-(2-Methyl-3-furylthio)-4-heptanone] | > 90
CC(C)(C)C(O)/C=C/c1ccc2c(c1)OCO2 (centres unmarked) [Stiripentol] | > 50
NCCC[C@H](N)CC(=O)N[C@H]1CNC(=O)[C@H]([C@H]2C[C@H](O)NC(N)=N2)NC(=O)/C(=C/NC(N)=O)NC(=O)[C@H](CO)NC(=O)[C@H](CO)NC1=O [Viomycin sulfate] (β3hOrn-[Dap]SS[ΔAla(Z-3-ureido)][X1]; lactam 1-C) | > 50
CCCCCCCC/C=C\CCCCCCCC(=O)NCc1ccc(O)c(OC)c1 [Olvanil] | 8.65
CCCCCCCCCOC(=O)c1ccc(O)cc1 [Nonylparaben] | 21.8
OC[C@H]1O[C@H](O[C@]2(CCl)O[C@H](CCl)[C@@H](O)[C@@H]2O)[C@H](O)[C@@H](O)[C@H]1Cl [Sucralose] | > 90
C=CC(=C)CC/C=C(\C)CC/C=C(/C)C=O [Orange terpenes] | 42.9
CCCCCCC=O [Heptanal] | > 90
O=C1c2ccccc2CN2C(=O)c3ccccc3CN12 [Diftalone] | > 50
COc1cc(C[C@@H](C)N)c(OC)cc1C [R-(-)-2,5-Dimethoxy-4-methylamphetamine hydrochloride] | 41.9
CN(C/C=C/c1ccccc1)Cc1cccc2ccccc12 [Naftifine hydrochloride] | 25
O=Cc1ccc(CO)o1 [5-(Hydroxymethyl)-2-furfural] | > 90
COc1ccc(C)cc1[N+](=O)[O-] [1-Methoxy-4-methyl-2-nitrobenzene] | > 90
[N-]=[N+]=CC(=O)OC[C@H](N)C(=O)O [Azaserine] | > 50
COC(C)(C)CC(C)=O [4-Methoxy-4-methyl-2-pentanone] | > 90
O=C(O)c1ccc(Cl)c(Cl)c1 [3,4-Dichlorobenzoic acid] | > 90
CCCCCCCCC(=O)OCC(C)OC(=O)CCCCCCCC (centres unmarked) [Propylene glycol dipelargonate] | > 100
COC(=O)CCCC(=O)OC [Dimethyl glutarate] | > 90

Same assay, conditions: rat, gh3-tre-luc cells, AC50 (uM) modified / 1000, Tox21_110001=Tox21_110991; viability, 1 nM T3 present, 24 h

SMILES | CC50 at 24 h [µM]
CCC1(c2ccccc2)C(=O)N(COC)C(=O)N(COC)C1=O [Eterobarb] | > 50

Same assay, conditions: rat, gh3-tre-luc cells, AC50 (uM) modified / 1000, Tox21_110001=Tox21_112075; viability, 1 nM T3 present, 24 h

SMILES | CC50 at 24 h [µM]
COP(=S)(OC)Oc1ccc(Sc2ccc(OP(=S)(OC)OC)cc2)cc1 [Temephos] | > 50

Same assay, conditions: rat, gh3-tre-luc cells, AC50 (uM) modified / 1000, Tox21_110001=Tox21_200517; viability, 1 nM T3 present, 24 h

SMILES | CC50 at 24 h [µM]
Cc1ccc(N)cc1 [4-Methylaniline hydrochloride] | > 90

Same assay, conditions: rat, gh3-tre-luc cells, AC50 (uM) modified / 1000, Tox21_110001=Tox21_200923; viability, 1 nM T3 present, 24 h

SMILES | CC50 at 24 h [µM]
O=C(O)C(Cl)(Cl)Br [Bromodichloroacetic acid] | > 90

Same assay, conditions: rat, gh3-tre-luc cells, AC50 (uM) modified / 1000, Tox21_110001=Tox21_301778; viability, 1 nM T3 present, 24 h

SMILES | CC50 at 24 h [µM]
COP(=S)(OC)Oc1ccc(Sc2ccc(OP(=S)(OC)OC)cc2)cc1 [Temephos] | > 90

Same assay, conditions: rat, gh3-tre-luc cells, AC50 (uM) modified / 1000, Tox21_110001=Tox21_301914; viability, 1 nM T3 present, 24 h

SMILES | CC50 at 24 h [µM]
CC(C)OC(=O)C(O)(c1ccc(Cl)cc1)c1ccc(Cl)cc1 [Chloropropylate] | 74.2
